Test results published in PubChem BioAssay (NCI).
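How tested: cells in 96-well plates exposed to compound for 48 hours at five concentrations. TGI denotes the concentration required for complete inhibition of growth.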

How the values were obtained:
Assay in all cases: NCI tumour cell line growth inhibition, 48 h
[1] = tested on: UACC-257 melanoma
[2] = tested on: UO-31 renal
[3] = tested on: BT-549 breast
[4] = tested on: HL-60(TB) leukemia
[5] = tested on: UACC-62 melanoma
[6] = tested on: COLO 205 colon
[7] = tested on: NCI-H460 lung
[8] = tested on: SK-MEL-28 melanoma
[9] = tested on: SW-620 colon
[10] = tested on: T-47D breast
[11] = tested on: SK-MEL-5 melanoma
[12] = tested on: NCI-H226 lung
[13] = tested on: K-562 leukemia
[14] = tested on: SF-268 CNS
[15] = tested on: PC-3 prostate
[16] = tested on: HOP-92 NSCLC
[17] = tested on: CCRF-CEM leukemia
[18] = tested on: SK-MEL-2 melanoma

| SMILES | TGI [1] | TGI [2] | TGI [3] | TGI [4] | TGI [5] | TGI [6] | TGI [7] | TGI [8] | TGI [9] | TGI [10] | TGI [11] | TGI [12] | TGI [13] | TGI [14] | TGI [15] | TGI [16] | TGI [17] | TGI [18] |
| --- | --- | --- | --- | --- | --- | --- | --- | --- | --- | --- | --- | --- | --- | --- | --- | --- | --- | --- |
| Cn1c(=O)c2c(nc(N)n2C2OC(CO)C(O)C2O)n(C)c1=O (stereo unspecified) | > 100 µM | > 100 µM | > 100 µM | > 100 µM | > 100 µM | > 100 µM | > 100 µM | > 100 µM | > 100 µM | > 100 µM | > 100 µM | > 100 µM | > 100 µM | > 100 µM | > 100 µM | > 100 µM | > 100 µM | – |
| O=C(Nc1nnc(-c2c(Cl)c(Cl)c(Cl)c(Cl)c2-c2nc3cc(C(=O)c4ccccc4)ccc3[nH]2)o1)c1ccccc1 | 85.7 µM | > 100 µM | 73.4 µM | 65.3 µM | – | 24.5 µM | – | 45.4 µM | > 100 µM | 54.7 µM | 18.5 µM | 35.5 µM | > 100 µM | – | 28.3 µM | 44.5 µM | 20.8 µM | 51.4 µM |
| CCN(CC)CCOC(=O)CCN1CC2CCC(CC2)C1 | > 100 µM | > 100 µM | > 100 µM | > 100 µM | > 100 µM | > 100 µM | > 100 µM | > 100 µM | > 100 µM | > 100 µM | > 100 µM | > 100 µM | > 100 µM | – | > 100 µM | > 100 µM | > 100 µM | > 100 µM |
| COC(=O)[C@]12CCC(C)(C)C[C@H]1C1=CC[C@@H]3[C@@]4(C)CC[C@H](OC5OC(CO)C(O)C(O)C5OC5OC(CO)C(O)C(O)C5O)C(C)(C)[C@@H]4CC[C@@]3(C)[C@]1(C)CC2 (stereo partly specified) | 20.3 µM | 10.9 µM | 35.8 µM | 19.4 µM | 23.9 µM | 10.4 µM | 30.2 µM | 12.3 µM | 27.7 µM | 36.3 µM | 29.3 µM | 14.5 µM | 25.4 µM | 31.2 µM | 15.3 µM | 13 µM | 33.8 µM | 23.9 µM |
| COc1cc2nc(-c3ccccc3F)[nH]c(=O)c2cc1OC | > 100 µM | > 100 µM | > 100 µM | > 100 µM | > 100 µM | > 100 µM | > 100 µM | – | – | > 100 µM | > 100 µM | > 100 µM | > 100 µM | > 100 µM | > 100 µM | > 100 µM | > 100 µM | > 100 µM |
| CO[C@@H]1C=C[C@@]23c4cc5c(cc4C(O)N(CC2O)C3C1)OCO5 (stereo partly specified) | 5.9 µM | 36.8 µM | 20.5 µM | 5.64 µM | 20.4 µM | 14.2 µM | 12.9 µM | > 100 µM | > 100 µM | 8.01 µM | 6.01 µM | > 100 µM | > 100 µM | > 100 µM | 17.5 µM | 13.6 µM | 5.38 µM | 9.09 µM |
| O=C1Nc2cc([N+](=O)[O-])ccc2C(=O)N2CCC[C@@H]12 | > 100 µM | > 100 µM | > 100 µM | > 100 µM | > 100 µM | > 100 µM | > 100 µM | > 100 µM | > 100 µM | > 100 µM | > 100 µM | > 100 µM | > 100 µM | > 100 µM | > 100 µM | > 100 µM | > 100 µM | > 100 µM |
| Cc1c2cccc-2ccc2c1[nH]c1ccc(Br)cc12 | > 100 µM | 18.6 µM | 20.7 µM | > 100 µM | 27.1 µM | 4.33 µM | > 100 µM | 24 µM | 25.2 µM | 4.01 µM | 13.4 µM | 5.6 µM | 11.8 µM | 17.2 µM | 14.2 µM | 9.94 µM | 90.9 µM | 17.9 µM |
| COc1ccc(C2CC(=O)CC(c3ccc(OC)cc3)C23C(=O)NC(=S)NC3=O)cc1 (stereo unspecified) | > 100 µM | > 100 µM | > 100 µM | > 100 µM | > 100 µM | > 100 µM | > 100 µM | > 100 µM | > 100 µM | > 100 µM | > 100 µM | > 100 µM | > 100 µM | > 100 µM | > 100 µM | > 100 µM | > 100 µM | > 100 µM |
| O=C1Oc2ccccc2C(=O)/C1=C/N1C(=O)N/C(=C\c2cccc(O)c2)C1=O | > 100 µM | > 100 µM | 73.2 µM | > 100 µM | – | > 100 µM | > 100 µM | > 100 µM | > 100 µM | > 100 µM | > 100 µM | > 100 µM | – | – | > 100 µM | > 100 µM | – | > 100 µM |
| CCOC(=O)CCC(C(=O)OCC)n1nnc2ccc(Nc3c(C)[n+]([O-])c4cc(Cl)ccc4[n+]3[O-])cc21 (stereo unspecified) | 30.8 µM | > 100 µM | 78.1 µM | 83.5 µM | 35.1 µM | 35.7 µM | > 100 µM | – | – | 44.3 µM | – | 81.5 µM | 57.7 µM | 55.1 µM | > 100 µM | 38.7 µM | > 100 µM | 57 µM |
| COc1ccc(C2=Nn3c(nc4sc(-c5ccccc5)cc4c3=O)SC2)cc1 | > 100 µM | > 100 µM | > 100 µM | > 100 µM | > 100 µM | > 100 µM | > 100 µM | > 100 µM | > 100 µM | > 100 µM | > 100 µM | > 100 µM | – | > 100 µM | > 100 µM | > 100 µM | > 100 µM | – |
| CCN(CC)CCn1c2cc3c(cc2c(=O)c2cccnc21)OCO3 | > 10 µM | – | > 10 µM | > 10 µM | > 10 µM | > 10 µM | 7.79 µM | > 10 µM | > 10 µM | > 10 µM | > 10 µM | > 10 µM | – | > 10 µM | > 10 µM | > 10 µM | > 10 µM | > 10 µM |
